# Data as given in PubChem BioAssay (NCI).
# Several values for one entry are separate records, joined by “and”; a condition that tells them apart may be missing. Identical values can stand only once.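 Values below derive from 48-hour exposures of cells grown in 96-well plates, with endpoints linearly interpolated between the two concentrations bracketing the appropriate inhibition level. At the GI50, growth is halved. TGI: total growth inhibition.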
# Experiments:
# Experiment in all cases: DTP human tumour cell line panel, 48 h
# 786-0 renal = tested on: 786-0 renal
# A549 NSCLC = tested on: A549 NSCLC
# ACHN renal = tested on: ACHN renal
# BT-549 breast = tested on: BT-549 breast
# DU-145 prostate = tested on: DU-145 prostate
# EKVX NSCLC = tested on: EKVX NSCLC
# HCT-116 colon = tested on: HCT-116 colon
# HOP-92 NSCLC = tested on: HOP-92 NSCLC
# HS 578T breast = tested on: HS 578T breast
# HT29 colon = tested on: HT29 colon
# IGROV1 ovarian = tested on: IGROV1 ovarian
# KM12 colon = tested on: KM12 colon
# MALME-3M melanoma = tested on: MALME-3M melanoma
# MDA-MB-231 breast = tested on: MDA-MB-231 breast
# MOLT-4 leukemia = tested on: MOLT-4 leukemia
# NCI-H226 lung = tested on: NCI-H226 lung
# NCI-H23 lung = tested on: NCI-H23 lung
# NCI-H460 lung = tested on: NCI-H460 lung
# NCI-H522 lung = tested on: NCI-H522 lung
# OVCAR-4 ovarian = tested on: OVCAR-4 ovarian
# OVCAR-5 ovarian = tested on: OVCAR-5 ovarian
# OVCAR-8 ovarian = tested on: OVCAR-8 ovarian
# PC-3 prostate = tested on: PC-3 prostate
# RPMI-8226 leukemia = tested on: RPMI-8226 leukemia
# RXF 393 renal = tested on: RXF 393 renal
# SF-268 CNS = tested on: SF-268 CNS
# SK-MEL-28 melanoma = tested on: SK-MEL-28 melanoma
# SN12C renal = tested on: SN12C renal
# SW-620 colon = tested on: SW-620 colon
# T-47D breast = tested on: T-47D breast
# TK-10 renal = tested on: TK-10 renal
# U251 CNS = tested on: U251 CNS
# CAKI-1 renal = tested on: CAKI-1 renal
# CCRF-CEM leukemia = tested on: CCRF-CEM leukemia
# COLO 205 colon = tested on: COLO 205 colon
# HCC-2998 colon = tested on: HCC-2998 colon
# HCT-15 colon = tested on: HCT-15 colon
# HL-60(TB) leukemia = tested on: HL-60(TB) leukemia
# HOP-62 NSCLC = tested on: HOP-62 NSCLC
# K-562 leukemia = tested on: K-562 leukemia
# M14 melanoma = tested on: M14 melanoma
# MCF7 breast = tested on: MCF7 breast
# MDA-MB-435 = tested on: MDA-MB-435
# NCI/ADR-RES ovarian = tested on: NCI/ADR-RES ovarian
# OVCAR-3 ovarian = tested on: OVCAR-3 ovarian
# SF-295 CNS = tested on: SF-295 CNS
# SF-539 CNS = tested on: SF-539 CNS
# SK-MEL-2 melanoma = tested on: SK-MEL-2 melanoma
# SK-MEL-5 melanoma = tested on: SK-MEL-5 melanoma
# SK-OV-3 ovarian = tested on: SK-OV-3 ovarian
# SNB-19 CNS = tested on: SNB-19 CNS
# SNB-75 CNS = tested on: SNB-75 CNS
# SR leukemia = tested on: SR leukemia
# UACC-257 melanoma = tested on: UACC-257 melanoma
# UACC-62 melanoma = tested on: UACC-62 melanoma
# UO-31 renal = tested on: UO-31 renal
# A498 renal = tested on: A498 renal
# LOX IMVI melanoma = tested on: LOX IMVI melanoma
smiles,measurement,setting,value
Cc1ccnc2[nH]c(-c3ccccc3)cc(=O)c12,TGI,786-0 renal,> 100 µM
same,TGI,A549 NSCLC,> 100 µM
same,TGI,ACHN renal,63.3 µM
same,TGI,BT-549 breast,> 100 µM
same,TGI,DU-145 prostate,> 100 µM
same,GI50,EKVX NSCLC,> 100 µM
same,TGI,EKVX NSCLC,> 100 µM
same,TGI,HCT-116 colon,10.6 µM
same,TGI,HOP-92 NSCLC,93.7 µM
same,TGI,HS 578T breast,> 100 µM
same,TGI,HT29 colon,0.0259 µM
same,GI50,IGROV1 ovarian,1.84 µM
same,TGI,IGROV1 ovarian,> 100 µM
same,TGI,KM12 colon,12.8 µM
same,TGI,MALME-3M melanoma,> 100 µM
same,GI50,MDA-MB-231 breast,0.134 µM
same,TGI,MOLT-4 leukemia,> 100 µM
same,GI50,NCI-H226 lung,1.46 µM
same,TGI,NCI-H226 lung,5.96 µM and 32.5 µM
same,GI50,NCI-H23 lung,0.0692 µM
same,TGI,NCI-H460 lung,> 100 µM
same,TGI,NCI-H522 lung,0.192 µM
same,TGI,OVCAR-4 ovarian,> 100 µM
same,GI50,OVCAR-5 ovarian,20.9 µM
same,TGI,OVCAR-5 ovarian,51.2 µM
same,GI50,OVCAR-8 ovarian,0.0193 µM
same,TGI,OVCAR-8 ovarian,> 100 µM
same,TGI,PC-3 prostate,> 100 µM
same,GI50,RPMI-8226 leukemia,0.0278 µM
same,TGI,RXF 393 renal,0.0184 µM
same,GI50,SF-268 CNS,0.0171 µM
same,TGI,SF-268 CNS,> 100 µM
same,TGI,SK-MEL-28 melanoma,> 100 µM
same,GI50,SN12C renal,0.0399 µM
same,TGI,SW-620 colon,> 100 µM
same,TGI,T-47D breast,> 100 µM
same,TGI,TK-10 renal,58.9 µM
same,TGI,U251 CNS,> 100 µM
O=c1[nH]c(=O)n(Cc2ccccc2CO)cc1Sc1ccccc1,TGI,786-0 renal,> 100 µM
same,TGI,A549 NSCLC,43.2 µM
same,TGI,ACHN renal,96.4 µM
same,TGI,CAKI-1 renal,27.2 µM
same,TGI,CCRF-CEM leukemia,> 100 µM
same,TGI,COLO 205 colon,> 100 µM
same,TGI,DU-145 prostate,> 100 µM
same,TGI,EKVX NSCLC,60.8 µM
same,TGI,HCC-2998 colon,30.8 µM
same,TGI,HCT-116 colon,64.7 µM
same,TGI,HCT-15 colon,53.5 µM
same,TGI,HL-60(TB) leukemia,> 100 µM
same,TGI,HOP-62 NSCLC,> 100 µM
same,TGI,HOP-92 NSCLC,> 100 µM
same,TGI,HS 578T breast,60.6 µM
same,TGI,HT29 colon,> 100 µM
same,TGI,IGROV1 ovarian,29 µM
same,TGI,K-562 leukemia,> 100 µM
same,TGI,KM12 colon,> 100 µM
same,TGI,M14 melanoma,41.2 µM
same,TGI,MALME-3M melanoma,41.5 µM
same,TGI,MCF7 breast,> 100 µM
same,TGI,MDA-MB-231 breast,33.8 µM
same,TGI,MDA-MB-435,45.2 µM
same,TGI,MOLT-4 leukemia,> 100 µM
same,TGI,NCI-H226 lung,43.8 µM
same,TGI,NCI-H23 lung,39.9 µM
same,TGI,NCI-H460 lung,> 100 µM
same,TGI,NCI-H522 lung,3.81 µM
same,TGI,NCI/ADR-RES ovarian,81 µM
same,TGI,OVCAR-3 ovarian,42.2 µM
same,TGI,OVCAR-4 ovarian,> 100 µM
same,TGI,OVCAR-5 ovarian,> 100 µM
same,TGI,OVCAR-8 ovarian,48.2 µM
same,TGI,PC-3 prostate,> 100 µM
same,TGI,RXF 393 renal,80.9 µM
same,TGI,SF-268 CNS,70.6 µM
same,TGI,SF-295 CNS,> 100 µM
same,TGI,SF-539 CNS,93.9 µM
same,TGI,SK-MEL-2 melanoma,45.8 µM
same,TGI,SK-MEL-28 melanoma,> 100 µM
same,TGI,SK-MEL-5 melanoma,26.7 µM
same,TGI,SK-OV-3 ovarian,> 100 µM
same,TGI,SN12C renal,> 100 µM
same,TGI,SNB-19 CNS,> 100 µM
same,TGI,SNB-75 CNS,> 100 µM
same,TGI,SR leukemia,> 100 µM
same,TGI,SW-620 colon,> 100 µM
same,TGI,T-47D breast,> 100 µM
same,TGI,TK-10 renal,> 100 µM
same,TGI,U251 CNS,> 100 µM
same,TGI,UACC-257 melanoma,72.4 µM
same,TGI,UACC-62 melanoma,> 100 µM
same,TGI,UO-31 renal,22.9 µM
CCN1c2ccccc2C(Cl)(c2ccc(N(C)C)cc2)c2ccccc21,GI50,786-0 renal,10.7 µM
same,TGI,786-0 renal,22.7 µM
same,GI50,A498 renal,59.6 µM
same,TGI,A498 renal,> 100 µM
same,GI50,A549 NSCLC,4.34 µM
same,TGI,A549 NSCLC,24.5 µM
same,GI50,ACHN renal,12.4 µM
same,TGI,ACHN renal,28.4 µM
same,GI50,BT-549 breast,12 µM
same,TGI,BT-549 breast,29 µM
same,GI50,CAKI-1 renal,14.5 µM
same,TGI,CAKI-1 renal,49.4 µM
same,GI50,CCRF-CEM leukemia,2.34 µM
same,TGI,CCRF-CEM leukemia,17 µM
same,GI50,COLO 205 colon,2.31 µM
same,TGI,COLO 205 colon,7.73 µM
same,GI50,DU-145 prostate,5.5 µM
same,TGI,DU-145 prostate,17.1 µM
same,GI50,EKVX NSCLC,7.98 µM
same,TGI,EKVX NSCLC,> 100 µM
same,GI50,HCC-2998 colon,10.9 µM
same,TGI,HCC-2998 colon,23.4 µM
same,GI50,HCT-116 colon,2.66 µM
same,TGI,HCT-116 colon,10.3 µM
same,GI50,HCT-15 colon,11.9 µM
same,TGI,HCT-15 colon,49.4 µM
same,GI50,HL-60(TB) leukemia,1.89 µM
same,TGI,HL-60(TB) leukemia,4.7 µM
same,GI50,HOP-62 NSCLC,4.27 µM
same,TGI,HOP-62 NSCLC,17.3 µM
same,GI50,HOP-92 NSCLC,2.84 µM
same,TGI,HOP-92 NSCLC,17 µM
same,GI50,HS 578T breast,4.89 µM
same,TGI,HS 578T breast,27.3 µM
same,GI50,HT29 colon,2.88 µM
same,TGI,HT29 colon,12.4 µM
same,GI50,IGROV1 ovarian,2.61 µM
same,TGI,IGROV1 ovarian,7.98 µM
same,GI50,K-562 leukemia,3.1 µM
same,TGI,K-562 leukemia,25.7 µM
same,GI50,KM12 colon,4.41 µM
same,TGI,KM12 colon,15.6 µM
same,GI50,LOX IMVI melanoma,3.67 µM
same,TGI,LOX IMVI melanoma,13.6 µM
same,GI50,M14 melanoma,5.97 µM
same,TGI,M14 melanoma,20.2 µM
same,GI50,MALME-3M melanoma,3.33 µM
same,TGI,MALME-3M melanoma,12.4 µM
same,GI50,MCF7 breast,10.3 µM
same,TGI,MCF7 breast,30.5 µM
same,GI50,MDA-MB-231 breast,13.1 µM
same,TGI,MDA-MB-231 breast,37.5 µM
same,GI50,MDA-MB-435,3.34 µM
same,TGI,MDA-MB-435,14 µM
same,GI50,MOLT-4 leukemia,3.27 µM
same,TGI,MOLT-4 leukemia,15.2 µM
same,GI50,NCI-H226 lung,14.6 µM
same,TGI,NCI-H226 lung,34.5 µM
same,GI50,NCI-H23 lung,3.04 µM
same,TGI,NCI-H23 lung,14.4 µM
same,GI50,NCI-H460 lung,7.77 µM
same,TGI,NCI-H460 lung,23.4 µM
same,GI50,NCI/ADR-RES ovarian,13.3 µM
same,TGI,NCI/ADR-RES ovarian,44.6 µM
same,GI50,OVCAR-3 ovarian,2.93 µM
same,TGI,OVCAR-3 ovarian,8.53 µM
same,GI50,OVCAR-4 ovarian,11.9 µM
same,TGI,OVCAR-4 ovarian,25.3 µM
same,GI50,OVCAR-5 ovarian,17.7 µM
same,TGI,OVCAR-5 ovarian,34.9 µM
same,GI50,PC-3 prostate,2.18 µM
same,TGI,PC-3 prostate,9.88 µM
same,GI50,RPMI-8226 leukemia,1.07 µM
same,TGI,RPMI-8226 leukemia,4.04 µM
same,GI50,SF-268 CNS,5.61 µM
same,TGI,SF-268 CNS,19.3 µM
same,GI50,SF-295 CNS,21.7 µM
same,TGI,SF-295 CNS,73.8 µM
same,GI50,SF-539 CNS,15.5 µM
same,TGI,SF-539 CNS,29.2 µM
same,GI50,SK-MEL-28 melanoma,7.96 µM
same,TGI,SK-MEL-28 melanoma,22.4 µM
same,GI50,SK-MEL-5 melanoma,3.76 µM
same,TGI,SK-MEL-5 melanoma,15 µM
same,GI50,SK-OV-3 ovarian,4.97 µM
same,TGI,SK-OV-3 ovarian,18.2 µM
same,GI50,SN12C renal,4.88 µM
same,TGI,SN12C renal,19.2 µM
same,GI50,SNB-19 CNS,5.44 µM
same,TGI,SNB-19 CNS,19.1 µM
same,GI50,SNB-75 CNS,5.16 µM
same,TGI,SNB-75 CNS,18.2 µM
same,GI50,SW-620 colon,2.9 µM
same,TGI,SW-620 colon,12.1 µM
same,GI50,T-47D breast,4.22 µM
same,TGI,T-47D breast,64.2 µM
same,GI50,TK-10 renal,11.1 µM
same,TGI,TK-10 renal,29.1 µM
same,GI50,U251 CNS,3.69 µM
same,TGI,U251 CNS,17.4 µM
same,GI50,UACC-62 melanoma,11.6 µM
same,TGI,UACC-62 melanoma,42.1 µM
same,GI50,UO-31 renal,1.91 µM
same,TGI,UO-31 renal,5.27 µM
